Several values for one entry are separate records, joined by “and”; a condition that tells them apart may be missing. Equal entries are not always repeated. Numbers after ± are expanded uncertainties.
Test: molar heat capacity at constant pressure
Details: 101.33 kPa, Small (less than 1 g) adiabatic calorimetry

CC(C)(C)c1ccc(Oc2ccc([N+](=O)[O-])cc2)cc1 [1-(tert-butyl)-4-(4-nitrophenoxy)benzene]
molar heat capacity at constant pressure
Details	Crystal	Liquid
262.65 K	316.28 ± 1.7 J/K/mol	–
263.87 K	317.61 ± 1.7 J/K/mol	–
265.09 K	319.11 ± 1.7 J/K/mol	–
266.31 K	320.52 ± 1.7 J/K/mol	–
267.53 K	322.93 ± 1.7 J/K/mol	–
268.76 K	323.52 ± 1.7 J/K/mol	–
269.98 K	324.6 ± 1.7 J/K/mol	–
270 K	324.6 ± 1.7 J/K/mol	–
271.2 K	326.68 ± 1.7 J/K/mol	–
272.42 K	327.92 ± 1.7 J/K/mol	–
273.64 K	329.92 ± 1.7 J/K/mol	–
274.86 K	331.08 ± 1.7 J/K/mol	–
276.09 K	332.58 ± 1.7 J/K/mol	–
277.31 K	333.99 ± 1.7 J/K/mol	–
278.53 K	335.41 ± 1.7 J/K/mol	–
279.76 K	336.82 ± 1.7 J/K/mol	–
280 K	336.82 ± 1.7 J/K/mol	–
280.98 K	337.98 ± 1.7 J/K/mol	–
282.21 K	338.98 ± 1.7 J/K/mol	–
283.43 K	341.06 ± 1.7 J/K/mol	–
284.66 K	342.56 ± 1.7 J/K/mol	–
285.89 K	344.14 ± 1.7 J/K/mol	–
287.11 K	345.22 ± 1.7 J/K/mol	–
288.31 K	347.05 ± 1.7 J/K/mol	–
289.54 K	348.38 ± 1.8 J/K/mol	–
290 K	349.21 ± 1.7 J/K/mol	–
290.77 K	349.96 ± 1.8 J/K/mol	–
291.99 K	351.2 ± 1.8 J/K/mol	–
293.22 K	353.2 ± 1.8 J/K/mol	–
294.45 K	354.45 ± 1.8 J/K/mol	–
295.68 K	355.94 ± 1.8 J/K/mol	–
296.91 K	357.69 ± 1.8 J/K/mol	–
298.15 K	359.02 ± 1.8 J/K/mol and 359.52 ± 1.9 J/K/mol	–
299.38 K	360.35 ± 1.8 J/K/mol	–
300 K	361.85 ± 1.9 J/K/mol	–
300.82 K	363.01 ± 1.8 J/K/mol	–
302.44 K	364.84 ± 1.9 J/K/mol	–
304.06 K	367.75 ± 1.9 J/K/mol	–
305.69 K	370.08 ± 1.9 J/K/mol	–
307.33 K	372.49 ± 1.9 J/K/mol	–
308.97 K	374.65 ± 1.9 J/K/mol	–
310 K	376.4 ± 1.9 J/K/mol	–
310.62 K	377.23 ± 1.9 J/K/mol	–
312.28 K	379.97 ± 1.9 J/K/mol	–
313.94 K	385.62 ± 2 J/K/mol	–
315.6 K	386.71 ± 2 J/K/mol	–
317.26 K	392.78 ± 2 J/K/mol	–
318.94 K	397.18 ± 2 J/K/mol	–
320 K	390.45 ± 1.9 J/K/mol	–
320.63 K	403.09 ± 2.1 J/K/mol	–
322.32 K	412.15 ± 2.1 J/K/mol	–
324.01 K	420.79 ± 2.2 J/K/mol	–
325.71 K	441.66 ± 2.3 J/K/mol	–
327.44 K	477.92 ± 2.6 J/K/mol	–
330 K	404.5 ± 2.1 J/K/mol	–
334.8 K	411.23 ± 2.1 J/K/mol	446.57 ± 2.2 J/K/mol
340 K	–	449.23 ± 2.2 J/K/mol
340.68 K	–	450.39 ± 2.3 J/K/mol
344.79 K	–	449.98 ± 2.3 J/K/mol
346.59 K	–	452.64 ± 2.3 J/K/mol
348.4 K	–	452.39 ± 2.3 J/K/mol
350 K	–	454.39 ± 2.2 J/K/mol
350.22 K	–	454.88 ± 2.3 J/K/mol
352.05 K	–	456.21 ± 2.3 J/K/mol
353.89 K	–	457.05 ± 2.3 J/K/mol
355.75 K	–	456.96 ± 2.3 J/K/mol
357.6 K	–	459.21 ± 2.3 J/K/mol
359.66 K	–	460.7 ± 2.3 J/K/mol
360 K	–	459.54 ± 2.2 J/K/mol
361.55 K	–	460.21 ± 2.3 J/K/mol
363.45 K	–	461.62 ± 2.3 J/K/mol
365.36 K	–	462.28 ± 2.3 J/K/mol
367.28 K	–	462.87 ± 2.3 J/K/mol
369.21 K	–	463.95 ± 2.3 J/K/mol
370 K	–	464.7 ± 2.2 J/K/mol
371.16 K	–	464.86 ± 2.3 J/K/mol

From the NIST ThermoML archive (doi:10.1016/j.jct.2016.10.031)
